Patent US20250090562A1, “METHODS, COMPOSITIONS AND USES RELATED TO THE TREATMENT AND PREVENTION OF LEIGH’S SYNDROME” (Stealth BioTherapeutics Inc., priority 2023, published 2025)
Entries after “also recorded” stand apart in the source; their conditions may differ.

Tests used:
[1] = tested on: Leigh fibroblasts (GM03672); assay: Mitochondrial membrane potential (TMRM flow cytometry) in RSL3-treated Leigh fibroblasts; format: cell-based, human; conditions: 1 μM RSL3 alone, 4 h
Description: Leigh fibroblasts (GM03672) were seeded in a 24-well, tissue culture-treated plate in complete MEM (MEM+15% FBS+1% penicillin/streptomycin) at a density of 1×10^5 cells per 500 μL and incubated overnight at 37° C. at 5% CO2. Cells were treated for 4 hours at 37° C. with either 1 μM RSL3, 1 μM RSL3 with 1 μM Compound 3 or media for untreated cells. Following the incubation, supernatant was removed and cells were treated with 0.25% trypsin for 5 min at 37° C. Trypsin was neutralized with an equal part MEM. Cells were dislodged with gentle pipetting and pelleted at 300×g for 5 minutes. Pellets were resuspended in 500 μL Fluobrite DMEM and cells were transferred to a 96-well, v-bottom plate. Cells were stained with 20 nM MitoTracker Green and 100 nM tetramethylrhodamine methyl ester (TMRM) Samples were incubated for 25 minutes at 37° C. Each well was mixed immediately prior to analysis to resuspend settled cells. Fluorescence intensity was measured on the BD Accuri C6 Plus Flow Cytometer. A minimum of 10,000 events per sample was collected. Data analysis was performed using FloJo vs. 10. Gating was performed by establishing an initial forward scatter vs. side scatter gate. MitoTracker Green positive, TMRM positive cells were identified through subsequent gating. Median fluorescence intensity (MFI) of TMRM fluorescence was determined. Using GraphPad Prism 10, statistical significance between groups was determined by One-way ANOVA. A p-value of less than 0.05 was considered significant. Results are presented graphically in FIG. 20.

[2] = tested on: Healthy (GM08402) fibroblasts; assay: RSL3 cytoprotection assay, healthy fibroblasts; format: cell-based, human; conditions: for relative anti-ferroptosis properties (comparison between test articles): 1 μM RSL3, 10-1000 nM compound, 4 h
Description: (§1) Patient fibroblasts were acquired from Coriell Institute for Medical Research (Camden, NJ, USA). GM03672 is an untransformed fibroblast cell line from a Leigh syndrome patient carrying an unknown mutation. GM08402 is an untransformed fibroblast from an apparently healthy individual. Cells were cultured at 37° C. at 5% CO2 in Eagle's Minimum Essential Medium (MEM, Corning), which was supplemented with Earle's salts and non-essential amino acids, 15% qualified fetal bovine serum, and 1% penicillin/streptomycin ([…]) to yield “Complete MEM.”
(§2) To initiate the RSL3 cytoprotection experiment, Healthy (GM08402) and Leigh syndrome (GM03672) fibroblasts were resuspended in Complete MEM. Cells were seeded at 10,000 cells per well in a clear, tissue cultured-treated, 96-well plate and incubated at 37° C. overnight. Following the incubation, supernatant was manually aspirated, taking care not to disrupt cells. […]. Luminescence units were quantified by GEN5 software on a BioTek SYNERGY neo2 plate reader (LUM filter).
(§3) RSL3 is an inhibitor of the enzyme glutathione peroxidase 4 (GPX4), which decreases lipid peroxides. RSL3 inhibition of GPX4 induces ferroptosis through iron-dependent accumulation of lipid ROS. In this assay, Healthy or Leigh fibroblasts were treated for 4 hours with RSL3 to induce ferroptosis or left untreated. Endogenous ATP levels were measured as an indicator of cellular viability using a commercially available kit (CellTiter-Glo® 2.0 Cell Viability Assay (Promega)).
(§4) […]. […] Briefly, ferroptosis was induced with 1 μM RSL3 in healthy fibroblast cells and 375 nM RSL3 in fibroblasts from a patient with Leigh syndrome.
(§5) A preliminary experiment was performed to determine the effect of RSL3 injury on the fibroblasts of a healthy individual (cell line: GM08402) and the fibroblasts of a patient diagnosed with Leigh syndrome (cell line: GM03672).

[3] = tested on: Leigh syndrome (GM03672) fibroblasts; assay: RSL3 cytoprotection assay, Leigh fibroblasts; format: cell-based, human; conditions: for relative anti-ferroptosis properties (comparison between test articles): 375 nM RSL3, 10-1000 nM compound, 4 h
Description: as §1, §2, §3, §4, §5

[4] = tested on: rotenone-inhibited Complex I; assay: Complex I-bypass assay ((CI)-bypass assay), high-resolution respirometry O2 consumption; format: cell-based, human; conditions: Leigh (GM03672) fibroblasts, 0.5 μM rotenone; for Complex I by-pass activity (restoration of oxygen consumption rate): titrations 125 nM to 8 μM
Description: All high-resolution respirometry experiments were conducted using the Oroboros O2k-Fluorespirometer (Oroboros, Innsbruck, Austria). The Oroboros O2k-Fluorespirometer was calibrated daily using the air calibration protocol on DatLab 7.4 (Oroboros, Innsbruck, Austria). Prior to each experiment requiring the fluorescence module, the AmpR calibration protocol from DatLab 7.4 was used to calibrate the fluorescence signal. Initial data analysis, including setting of marks, was performed using DatLab 7.4.
Complex I-bypass activity was assessed using HRR to measure O2 consumption. Briefly, Leigh (GM03672) fibroblasts were harvested with trypsin, pelleted at 300×g centrifugation, and resuspended in prewarmed, complete MEM. Cells were added to each chamber via buffer replacement at a concentration of 1-2 million per mL. The chambers were closed to initiate measurement of O2 consumption. The slope negative signal, which is a derivative of O2 consumption, was allowed to stabilize over the course of several minutes. Using a Hamilton syringe to allow for continuous measurement of O2 consumption, glutamate (10 mM final concentration) and malate (0.1 mM final concentration) were added to the closed chamber through the central capillary of the stopper. The slope negative signal was stabilized for several minutes, and rotenone was added at a final concentration of 0.5 μM. One of Compounds 1 to 4 or Vatiquinone was added at increasing concentrations, allowing for several minutes of stabilization of the slope negative signal between titrations. Marks were set at signal plateaus in between titrations. Values were exported and analyzed using GraphPad Prism 9. […] Responsiveness of cells was confirmed with idebenone.
Statistical analysis was performed using GraphPad Prism 9. Complex I-bypass data were fit using nonlinear sigmoidal 4P fit. RET Assay data were analyzed by 2-way ANOVA using a p-value of 0.05.
The Complex 1-bypass assay ((CI)-bypass Assay) evaluates the capacity of compounds to donate electrons into the electron transport chain (ETC) when Complex I is impaired or otherwise deficient. Normally, electrons feed into the ETC through Complex I. In instances where Complex I is impaired, electrons must enter the ETC downstream of Complex I for oxidative phosphorylation (OXPHOS) to occur. Complex I is composed of 46 subunits, encoded by mitochondrial and nuclear genes. Due to its large size, Complex I mutations are a common cause of ETC dysfunction in mitochondrial diseases. Indeed, mutations in the genes that encode subunits for Complex I are important causes of Leigh and Leigh-like syndrome.
Using this assay, the ability of Compounds 1 to 4 and Vatiquinone to bypass rotenone-inhibited Complex I was determined. Rotenone is a widely used Complex I inhibitor and blocks the transfer of electrons from the iron-sulfur complexes on Complex I to ubiquinone. Thus, when rotenone is introduced to cells underdoing routine respiration, a decrease in oxygen consumption is observed, which is indicative of disrupted OXPHOS. The ability of Compounds 1 to 4 and Vatiquinone to “bypass” Complex I and restore OXPHOS is measured by an increase in oxygen consumption rate following addition of the compound to the chamber.
In executing this assay, in each instance, fibroblasts are added to each chamber of the Oroboros Oxygraph-2K (the “O2k”). The O2k generates two traces: 1) total oxygen consumption over time, 2) the rate of oxygen consumption over time (slope negative). Baseline respiration is established for several minutes by allowing the slope negative to stabilize. Rotenone is introduced to each chamber at a final concentration of 0.5 μM. The addition of rotenone is expected to cause a marked reduction of OXPHOS as measured by a decreased rate of oxygen consumption. Then the test article (i.e., in this case one of Compounds 1 to 4 or Vatiquinone) is added to the chamber. […]

[5] = tested on: Healthy (GM08402) fibroblasts; assay: Erastin cytoprotection assay, healthy fibroblasts; format: cell-based, human; conditions: 2 μM erastin, 250 μM FAC, 50 μM AA, 10-1000 nM compound, 24 h
Description: (§6) Briefly, Healthy (GM08402) or Leigh (GM03672) fibroblasts were resuspended in assay medium, seeded at 10,000 cells per well in a clear, tissue cultured-treated, 96-well plate, and incubated at 37° C. overnight. Following the incubation, supernatant was manually aspirated from wells, taking care not to disrupt cells. Fibroblasts were co-treated in a final volume of 100 μL with 2 μM erastin (Millipore Corp., Cat #), 250 μM ferric ammonium citrate (FAC), 50 μM ascorbic acid (AA), and a titration of one of each of Compounds 1 to 4 or Vatiquinone ranging from 10 to 1000 nM. Following another 24-hour incubation at 37° C., cell viability was measured using the CellTiter-Glo Luminescent Cell Viability Kit (ProMega) per Manufacturer's instructions. Luminescence units were quantified by GEN5 software on a BioTek SYNERGY neo2 plate reader (LUM filter).
(§7) Briefly, erastin, like RSL3, is known to induce ferroptosis. […] Erastin was incubated with cell fibroblasts for 24 hours to induce ferroptosis. Cells were co-treated with each of Compounds 1 to 4, or Vatiquinone as the test articles. Test articles were administered at a range of concentrations to derive a curve. Cell viability was determined using a commercially available kit that measures ATP production. […] An increase in cell viability as determined by the assay is considered to be protective against ferroptosis.

15-lipoxygenase (15-LO) = assay: 15(S)-HETE ELISA following RSL3 treatment, Leigh fibroblasts; format: cell-based, human; conditions: 700 nM RSL3, 1 μM compound, 24 h
Description: Samples for the 15(S)-HETE ELISA were generated by the RSL3 cytoprotection assay described above. Healthy or Leigh fibroblasts were resuspended in assay medium, seeded at 200,000 cells per well in a clear, tissue culture-treated, 24-well plate. Cells were incubated at 37° C. for 24 hours. Supernatant was aspirated from each well following the incubation.
Fibroblasts from both a healthy individual and a patient diagnosed with Leigh syndrome were examined (but not all compounds were examined in each cell type). Activation of ferroptosis has been implicated as a driver of epilepsy, which is commonly associated with Leigh syndrome. […] Kahn-Kirby et al. PLOS One. […] As a key regulator of ferroptosis, 15-LO serves as a rational therapeutic target in Leigh syndrome.

[6] = tested on: Leigh (GM03672) fibroblasts; assay: Erastin cytoprotection assay, Leigh fibroblasts; format: cell-based, human; conditions: 2 μM erastin, 250 μM FAC, 50 μM AA, 10-1000 nM compound, 24 h
Description: as §6, §7

[7] = patients with pontocerebellar hypoplasia type 6; cited from earlier work

Row | relative 15-LO inhibition (comparison between test articles) (15-lipoxygenase (15-LO)) | SMILES | mitochondrial membrane potential (TMRM MFI) [1] | RSL3 concentration sufficient for 25-30% killing of cells ([2]; healthy fibroblasts GM08402, 4 h) | RSL3 concentration sufficient for 25-30% killing of cells ([3]; Leigh fibroblasts GM03672, 4 h) | EC50 ([4]; oxygen consumption rate, read-out: EC50 value, Complex I by-pass activity) | Complex I by-pass activity (restoration of oxygen consumption rate) [4] | relative protective effect against erastin induced ferroptosis (cell viability, ATP) [5] | relative anti-ferroptosis properties (comparison between test articles) [2] | relative protective effect against erastin induced ferroptosis (cell viability, ATP) [6] | relative anti-ferroptosis properties (comparison between test articles) [3] | effect on seizures [7]
1 |  | COC(=O)c1ccc([C@H]2c3[nH]c4ccccc4c3C[C@H](C(=O)OC)N2C(=O)CCl)cc1 [RSL3, (1S,3R)-Methyl 2-(2-chloroacetyl)-2,3,4,9-tetrahydro-1-[4-(methoxycarbonyl)phenyl]-1H-pyrido[3,4-b]indole-3-carboxylate, reference compound] | significant reduction in mitochondrial membrane potential | 1 µM | 700 nM |  |  |  |  |  |  | 
2 | superior to Compounds 2, 3 and 4 | COC1=C(OC)C(=O)C(CCCCCCCCCC(F)(F)F)=C(C)C1=O [Compound 1] |  |  |  | ~13.7 µM | restored oxygen consumption rate in a dose-dependent manner | about equally protective | roughly equivalent in their anti-ferroptosis properties | about equally protective | roughly equivalent in their anti-ferroptosis properties | 
3 |  | CC(C)=CCC/C(C)=C/CC/C(C)=C/CC[C@@](C)(O)CCC1=C(C)C(=O)C(C)=C(C)C1=O [Vatiquinone, reference compound] |  |  |  |  | no CI-bypass activity; also recorded: inactive | about equally protective | roughly equivalent in their anti-ferroptosis properties | superior in its protective effect as compared with Compounds 1 and 4 | roughly equivalent in their anti-ferroptosis properties | reduce the incidence of seizures; also recorded: decrease seizure frequency and morbidity
